One data set relates to U87 cells. Kind of data set: In vivo anti-tumor activity against very large U87 flank tumors (FIG. 9). Particulars: treatment over two weeks.
Data set [1] can be described thus: Acute toxicity of free staurosporine. Particulars: 5 mg/Kg free staurosporine.
For data set [2] the following is noted: 0.8 mg/Kg injected as free staurosporine; 'would very likely be'; cited from earlier work.
The nature of data set [3]: Reverse pH gradient encapsulation efficiency of staurosporine in liposomes.
Procedure: The dried lipid film was hydrated with a buffer containing ammonium phosphate, ammonium sulfate, sodium phosphate, or sodium sulfate (300 mM, 7.4) and vortexed for 1 minute to remove any adhering lipid film. Sonication in a bath sonicator (ULTRAsonik 28X) for 1 minute at room temperature produced multilamellar vesicles (MLV). ME-Vs were then sonicated with a Ti-probe (Branson 450 sonifier) for 2 minutes to produce small unilamellar vesicles (SUV), indicated by the formation of a translucent solution. Extrusion through a 100 nm pore size polycarbonate filter (Whatman) was the final stage of a stepwise series of extrusions to reduce SUV size.
The prepared liposomes with internal buffer at pH 3 or 7.4 were passed through a Sephadex G-50 column equilibrated with HEPES buffered saline (FIBS; 20 mM HEPES, 150 mM NaCl, pH 7.4) to exchange the external buffer.

With `CN[C@@H]1C[C@H]2O[C@@](C)([C@@H]1OC)n1c3ccccc3c3c4c(c5c6ccccc6n2c5c31)C(=O)NC4` [free staurosporine, (9S, 10R, 11R, 13R)-2,3,10,11,12,13-Hexahydro-10-methoxy-9-methyl-11-(methylamino)-9,13-epoxy-1H,9H-diindolo[1,2,3-gh:3′,2′r-lm]pyrrolo[3,4-j][1,7]benzodiazonin-1-one], the Body weight entry with U87 cells is “body weight did decline”. Besides, the Tumor growth entry with U87 cells (tumors 180-200 mm^3 at start, relative to PBS, p<0.004 for liposomal) is on record as “no demonstrable effect”. Further, the Acute lethality result in data set [1] was “acutely lethal”. For the same molecule, the “Fraction cleared after only one circulatory pass” value in data set [2] is on record as 99%. Further, the “Increase of encapsulation when a pH gradient existed” value in data set [3] (internal buffer pH 7.4 versus pH 3, external buffer constant at pH 3) amounted to 14 fold. The Encapsulation rate entry in data set [3] (internal pH 5, external pH 7.4) is “very low encapsulation rates”. Also, the “Liposomal loading capacity, peak value” in data set [3] (lipid to drug ratio 11.11 (mole/mole)) is 70%.

The values above are taken from patent US10258629B2, “Liposomal drug encapsulation” (priority 2014, dated 2019).
